Where “and” joins values, the source holds several entries; their conditions need not be identical. Identical values can stand only once. Toxic doses and inconclusive results are not listed. Square brackets hold non-standard residues; d marks the D form. Peptide text beside a SMILES is read from it. * marks the point of attachment. ξ: configuration not given here. Cbz = O=C(OCc1ccccc1)*; OBn = c1ccc(CO*)cc1; Bn = c1ccc(C*)cc1; ξC = NC(CS)C(=O)O

The test system of this experiment is P388 leukemia ip, CD2F1 mice, survival T/C. Description: NCI In Vivo Anticancer Drug Screen. Data for tumor model P388 Leukemia (intraperitoneal) in CD2F1 (CDF1) mice. Particulars: endpoint: median survival time, higher = longer survival. The procedure, abridged: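 Mice carrying the transplanted tumor received test compound or vehicle. Survival was recorded in each group, and the value is the treated-group measurement divided by that of the vehicle-treated control group.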

[1] abbreviates: dose: 12.5 mg/kg/injection, schedule: Q01DX005 (ip), vehicle: saline with Tween-80.
The mark [2] stands for this setting: dose: 25.0 mg/kg/injection, schedule: Q01DX005 (ip), vehicle: saline with Tween-80.
Where [3] appears, read: dose: 50.0 mg/kg/injection, schedule: Q01DX005 (ip), vehicle: saline with Tween-80.
[4] abbreviates: dose: 100.0 mg/kg/injection, schedule: Q01DX005 (ip), vehicle: saline with Tween-80.
Setting [5] is: dose: 200.0 mg/kg/injection, schedule: Q01DX005 (ip), vehicle: saline with Tween-80.
Where [6] appears, read: dose: 50.0 mg/kg/injection, schedule: Q01DX005 (ip), vehicle: Klucel (hydroxypropylcellulose) (HPC).
Where [7] appears, read: dose: 100.0 mg/kg/injection, schedule: Q01DX005 (ip), vehicle: Klucel (hydroxypropylcellulose) (HPC).
Setting [8] is: dose: 200.0 mg/kg/injection, schedule: Q01DX005 (ip), vehicle: Klucel (hydroxypropylcellulose) (HPC).
Where [9] appears, read: dose: 60.0 mg/kg/injection, schedule: Q01DX005 (ip), vehicle: saline with Tween-80.
Where [10] appears, read: dose: 120.0 mg/kg/injection, schedule: Q01DX005 (ip), vehicle: saline with Tween-80.
[11] abbreviates: dose: 240.0 mg/kg/injection, schedule: Q01DX005 (ip), vehicle: saline with Tween-80.
Setting [12] is: dose: 50.0 mg/kg/injection, schedule: Q01DX009 (ip), vehicle: saline.

Regarding `CCOC(=O)Cn1cnc2cc(C)c(C)cc21`, the T/C is 90 % of control (dose: 100.0 mg/kg/injection, schedule: Q04DX003 (ip), vehicle: saline with Tween-80); 100 % of control (dose: 200.0 mg/kg/injection, schedule: Q04DX003 (ip), vehicle: saline with Tween-80); 90 % of control (dose: 400.0 mg/kg/injection, schedule: Q04DX003 (ip), vehicle: saline with Tween-80).

Consider `Cc1ccc(NC(=O)N(C)C)c(C)c1`, for which the T/C is, setting by setting: (dose: 60.0 mg/kg/injection, schedule: Q01DX005 (ip), vehicle: Klucel (hydroxypropylcellulose) (HPC)) 97 % of control; (dose: 120.0 mg/kg/injection, schedule: Q01DX005 (ip), vehicle: Klucel (hydroxypropylcellulose) (HPC)) 97 % of control; (dose: 240.0 mg/kg/injection, schedule: Q01DX005 (ip), vehicle: Klucel (hydroxypropylcellulose) (HPC)) 94 % of control.

Consider `CN(C)CC1CCc2c(ccc3ccccc23)C1=O` (configuration not stated), for which the T/C by setting is: under setting [1], 100 % of control; under setting [2], 103 % of control; under setting [3], 100 % of control; under setting [4], 104 % of control.

As to `O=C1NC(=O)C2(Cc3cccc4cccc2c34)N1` (configuration not stated), the T/C is 103 % of control under setting [3], 100 % of control under setting [4] and 99 % of control under setting [5].

On to `CCC(C)C1NC(=O)C(NC(=O)c2c3nc4c(C(=O)NC5C(=O)NC(C(C)CC)C(=O)N6CCCC6C(=O)N(C)CC(=O)N(C)C(C(C)C)C(=O)OC5C)cc([N+](=O)[O-])c(C)c4oc-3c(C)c(=O)c2N)C(C)OC(=O)C(C(C)C)N(C)C(=O)CN(C)C(=O)C2CCCN2C1=O` (configuration not stated), for which the T/C is 168 % of control (dose: 0.2 mg/kg/injection, schedule: Q01DX009 (ip), vehicle: Klucel (hydroxypropylcellulose) (HPC)); 228 % of control (dose: 0.4 mg/kg/injection, schedule: Q01DX009 (ip), vehicle: Klucel (hydroxypropylcellulose) (HPC)); 169 % of control (dose: 0.4 mg/kg/injection, schedule: Q01DX009 (ip), vehicle: water); 193 % of control (dose: 0.6 mg/kg/injection, schedule: Q01DX009 (ip), vehicle: water); 92 % of control (dose: 0.8 mg/kg/injection, schedule: Q01DX009 (ip), vehicle: Klucel (hydroxypropylcellulose) (HPC)).

`CCCCCCCCCCCCCCCCCCCCCCCCCCCCCCO`: the T/C is, setting by setting: (dose: 25.0 mg/kg/injection, schedule: Q01DX009 (ip), vehicle: saline with Tween-80) 86 % of control; (dose: 50.0 mg/kg/injection, schedule: Q01DX009 (ip), vehicle: saline with Tween-80) 101 % of control; (dose: 100.0 mg/kg/injection, schedule: Q01DX009 (ip), vehicle: saline with Tween-80) 96 % of control; (dose: 200.0 mg/kg/injection, schedule: Q01DX009 (ip), vehicle: saline with Tween-80) 92 % of control.

Turning to `C(=NCCC[Si]12OCCN(CCO1)CCO2)c1ccc(C=NCCC[Si]23OCCN(CCO2)CCO3)cc1`, the T/C is 95 % of control under setting [6], 97 % of control under setting [7] and 95 % of control under setting [8].

On to `c1ccc(C[N+]23CCC(CC2)CC3)cc1`, for which the T/C is, setting by setting: (dose: 3.13 mg/kg/injection, schedule: Q04DX003 (ip), vehicle: saline) 95 % of control; (dose: 6.25 mg/kg/injection, schedule: Q04DX003 (ip), vehicle: saline) 95 % of control; (dose: 12.5 mg/kg/injection, schedule: Q04DX003 (ip), vehicle: saline) 100 % of control.

As to `CCCCCCCC#CC1(C(O)CC)Sc2ccccc2N1C` (configuration not stated), the T/C reads like this: under setting [9], 107 % of control; under setting [10], 101 % of control; under setting [11], 105 % of control.

On to `CC(C)(C)C1CC=CCC1` (configuration not stated), for which the T/C is, setting by setting: (dose: 50.0 mg/kg/injection, schedule: Q01DX009 (ip), vehicle: saline sonified) 109 % of control; (dose: 100.0 mg/kg/injection, schedule: Q01DX009 (ip), vehicle: saline sonified) 100 % of control.

For `CCCCCC/C=N/N1C(=O)C2C3C=CC(O3)C2C1=O` (configuration not stated), the T/C reads like this: under setting [3], 103 % of control; under setting [4], 108 % of control; under setting [5], 95 % of control.

Take `C=C1N=NN(c2cccc(C(F)(F)F)c2)C1N1CCOCC1` (configuration not stated): the T/C by setting is: under setting [9], 99 % of control; under setting [10], 100 % of control.

Consider `CN(CC#N)Cc1ccccc1`, for which the T/C is 95 % of control (dose: 7.5 mg/kg/injection, schedule: Q01DX005 (ip), vehicle: saline with Tween-80); 96 % of control (dose: 15.0 mg/kg/injection, schedule: Q01DX005 (ip), vehicle: saline with Tween-80); 97 % of control (dose: 30.0 mg/kg/injection, schedule: Q01DX005 (ip), vehicle: saline with Tween-80); 103 % of control under setting [9].

In the case of `O=c1ccnc2sccn12`, the T/C by setting is: (dose: 100.0 mg/kg/injection, schedule: Q01DX001 (ip), vehicle: saline) 109 % of control; (dose: 200.0 mg/kg/injection, schedule: Q01DX001 (ip), vehicle: saline) 116 % of control; (dose: 400.0 mg/kg/injection, schedule: Q01DX001 (ip), vehicle: saline) 101 % of control.

In the case of `CCCCNC(=O)c1ccccc1C(=O)NC1(C(=O)NCCCC)CCCC1`, the T/C under setting [3] was 101 % of control, the T/C under setting [4] was 97 % of control and the T/C under setting [5] was 93 % of control.

Consider `O=C(CNC(=O)C(CSCc1ccccc1)NC(=O)OCc1ccccc1)NCC(=O)OCc1ccccc1` (stereo not drawn) (Cbz-[ξC](Bn)-Gly-Gly-OBn), for which the T/C is 102 % of control (dose: 12.5 mg/kg/injection, schedule: Q01DX005 (ip), vehicle: Klucel (hydroxypropylcellulose) (HPC)); 95 % of control (dose: 25.0 mg/kg/injection, schedule: Q01DX005 (ip), vehicle: Klucel (hydroxypropylcellulose) (HPC)); 102 % of control under setting [6].

In the case of `CC(C)(C)C(=Nc1ccccc1)OC(c1ccccc1)(C(F)(F)F)C(F)(F)F`, the T/C reads like this: (dose: 100.0 mg/kg/injection, schedule: Q04DX002 (ip), vehicle: Klucel (hydroxypropylcellulose) (HPC)) 105 % of control; (dose: 200.0 mg/kg/injection, schedule: Q04DX002 (ip), vehicle: Klucel (hydroxypropylcellulose) (HPC)) 101 % of control; (dose: 400.0 mg/kg/injection, schedule: Q04DX002 (ip), vehicle: Klucel (hydroxypropylcellulose) (HPC)) 90 % of control.

As to `C[C@H](N)C(=O)NCCNC(=O)[C@H](C)N`, the T/C reads like this: (dose: 60.0 mg/kg/injection, schedule: Q01DX005 (ip), vehicle: saline) 96 % of control; (dose: 120.0 mg/kg/injection, schedule: Q01DX005 (ip), vehicle: saline) 107 % of control; (dose: 240.0 mg/kg/injection, schedule: Q01DX005 (ip), vehicle: saline) 105 % of control.

In the case of `C(COCC1CO1)OCC1CO1` (configuration not stated), the T/C runs as follows: (dose: 12.5 mg/kg/injection, schedule: Q01DX009 (ip), vehicle: saline) 120 % of control; under setting [12], 150 % of control.

On to `O=S1(=O)CCC(N(/N=C/c2ccco2)c2ccccc2)C1` (configuration not stated), for which the T/C runs as follows: under setting [3], 95 % of control; under setting [4], 101 % of control; under setting [5], 101 % of control.

Take `COC(=O)C(=O)c1c(-c2ccc(O)c(OC)c2)[nH]c2[nH]n(-c3ccccc3)c(=O)c2c1=O`: the T/C was 100 % of control under setting [9], 109 % of control under setting [10] and 88 % of control under setting [11].

As for `COc1cc2c(c(OC)c1OC)-c1ccc(SC)c(=O)cc1C(N(C)C(=O)C(F)(F)F)CC2` (configuration not stated), the T/C is 109 % of control (dose: 1.25 mg/kg/injection, schedule: Q01DX009 (ip), vehicle: Klucel (hydroxypropylcellulose) (HPC)); 111 % of control and 122 % of control (dose: 2.5 mg/kg/injection, schedule: Q01DX009 (ip), vehicle: Klucel (hydroxypropylcellulose) (HPC)); 89 % of control (dose: 20.0 mg/kg/injection, schedule: Q01DX009 (ip), vehicle: Klucel (hydroxypropylcellulose) (HPC)).

For the compound `CCOC(=O)C(C)c1ccccc1` (configuration not stated), the T/C by setting is: under setting [12], 96 % of control; (dose: 100.0 mg/kg/injection, schedule: Q01DX009 (ip), vehicle: saline) 105 % of control; (dose: 200.0 mg/kg/injection, schedule: Q01DX009 (ip), vehicle: saline) 99 % of control.

For `COc1ccc(CC2=CC(=O)C(C)=CC2=O)cc1`, the T/C runs as follows: (dose: 6.25 mg/kg/injection, schedule: Q01DX005 (ip), vehicle: saline with Tween-80) 98 % of control; under setting [1], 91 % of control; under setting [2], 97 % of control.

Consider `C=CC(=O)NC(O)C(Cl)(Cl)Cl` (configuration not stated), for which the T/C runs as follows: under setting [6], 98 % of control; under setting [7], 98 % of control; under setting [8], 102 % of control.

Values taken from PubChem BioAssay AID330 (DTP/NCI, 2004).
